Assay [1] relates to SKOV3 cells expressing shScramble or shUQCR11. The assay can be described thus: Viability of isogenic SKOV3 lines expressing shScramble or shUQCR11 treated with MTHFD2 inhibitor. It counts as cell-based. The note with it: SKOV3 cells with UQCR11 knocked down vs shScramble. From the text: FIG. 2 Multi-objective metabolic flux analysis identifies MTHFD2 as a collateral lethal target in UQCR11-null ovarian cancers with in vitro, clinical and pan-cancer implications. a, Workflow elucidating multi-objective flux analysis algorithm comparing flux distributions of cancers with and without deletions for identification of collateral lethal pathways. b, Multi-objective metabolic Pareto frontier and metabolic fluxes of MTHFD1, MTHFD2, RNA and DNA syntheses in UQCR11-null and -intact models. Radar plots represent Pareto-optimal flux distributions from maximal biomass to maximal ATP maintenance (counterclockwise). c, mRNA expression of UQCR11 and MTHFD2 in parental ovarian cancer cell lines. Data presented as mean±s.d. (n=6), analysed using two-tailed Student's t-test. d, Protein expression of MTHFD2 and UQCR11. Representative immunoblots with β-actin as loading control. e, Cell viability after dox-induced shMTHFD2 knockdown. […] (n=3), analysed using two-way analysis of variance (ANOVA) with Dunn's correction. f, Viability of parental ovarian cancer lines treated with MTHFD2 inhibitor. […] Data analysed pairwise by log-rank test. k, Overall survival of patients with UCEC and low UQCR11 (bottom quartile) expression and high (top quartile) expression of MTHFD2 compared with patients with low UQCR11 and MTHFD2 (bottom quartile) expression. Data analysed by log-rank test. […]

The next assay relates to SKOV3 and OVCAR8 cells. Put plainly: MTHFD2 inhibitor in cells with NNT, IDH2 or IDH3A knocked down. It is filed as cell-based. The note with it: IDH2 or IDH3A knockdown, UQCR11-intact or -null cells, 10 μM, 72 h. The protocol:
FIG. 15 Investigating metabolic consequence of Complex III impairment and activity of paralogous pathways other than oxidative MTHFD2. (a) Effect of MTHFD2 inhibitor ([…]) and uridine (50 μM) supplementation on viability of parental ovarian cancer lines that are UQCR11—intact (SKOV3) or UQCR11-null (HeyA8, OVCAR8, CAOV3). Data are representative of two independent experiments and presented as mean±s.d. (n=6). Data analyzed with one-way ANOVA with Tukey's correction for multiple comparisons. (b) Effect of MTHFD2 inhibitor and uridine supplementation on viability of isogenic SKOV3 lines expressing shScramble or shUQCR11. […] Data analyzed with one-way ANOVA with Tukey's correction for multiple comparisons. […] (n=6) and analyzed using two-tailed Student's t-test. (d) mRNA expression of NNT, IDH2, IDH3A measured via qRT-PCR after knocking down with shNNT, shIDH2, and shIDH3A, relative to scramble shRNA (shScr), verifying knockdown efficiency in SKOV3 and OVCAR8 cell-lines. […] Data analyzed using unpaired two-tailed Student's t-test. […] Data are analyzed using ordinary one-way ANOVA with multiple comparisons. […] Loss of viability calculated by comparing respective viability in vehicle control-treated cells to MTHFD2 inhibitor-treated cells. […] (n=6) and analyzed using ordinary one-way ANOVA with Dunnett's correction for multiple comparisons. Error bars are calculated using propagation of error principles.

Regarding `Cc1c(N2CCN(C)[C@@H](C)C2)ccc2c3c(c(=O)oc12)CN(C(=O)c1ccc(NS(C)(=O)=O)c(OC(F)(F)F)c1)CC3` [DS18561882], in assay [1], the GISO concentrations result is “significantly reduced”. In the assay with SKOV3 and OVCAR8 cells, the “effect of MTHFD2 inhibition on viability” value is recorded as “not influenced”.

These data come from patent US20260018245A1, “SYSTEMS AND METHODS FOR IDENTIFYING AND TARGETING COLLATERAL LETHAL GENES” (The Regents of the University of Michigan, priority 2022, published 2026).
